Results published in ChEMBL document CHEMBL1134162 (Bioorg Med Chem Lett, 2001).

Columns and labels:
[1] = molecular target: Mu-type opioid receptor (Rattus norvegicus) (UniProt P33535)
Description: Selectivity ratio was determined by taking the ratio of Opioid receptor mu 1 to that of Opioid receptor delta 1

[2] = molecular target: Mu-type opioid receptor (Rattus norvegicus, UniProt P33535); assay: Binding affinity was determined towards Opioid receptor mu 1 in rat brain synaptosomes using [3H]DAMGO as radioligand.
[3] = molecular target: T1, Mu-type opioid receptor (Cavia porcellus, UniProt P97266); assay: In vitro inhibitory activity was determined against Opioid receptor mu 1 in guinea pig ileum
T1 sequence (P97266 whole entry): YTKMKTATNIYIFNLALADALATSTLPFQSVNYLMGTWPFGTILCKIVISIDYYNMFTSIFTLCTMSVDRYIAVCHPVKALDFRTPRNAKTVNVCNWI

[4] = molecular target: T2, Delta-type opioid receptor (Mus musculus, UniProt P32300); assay: Inhibitory activity against delta receptor of (endomorphin 2) in mouse vas deferens was determined
T2 sequence (P32300 whole entry): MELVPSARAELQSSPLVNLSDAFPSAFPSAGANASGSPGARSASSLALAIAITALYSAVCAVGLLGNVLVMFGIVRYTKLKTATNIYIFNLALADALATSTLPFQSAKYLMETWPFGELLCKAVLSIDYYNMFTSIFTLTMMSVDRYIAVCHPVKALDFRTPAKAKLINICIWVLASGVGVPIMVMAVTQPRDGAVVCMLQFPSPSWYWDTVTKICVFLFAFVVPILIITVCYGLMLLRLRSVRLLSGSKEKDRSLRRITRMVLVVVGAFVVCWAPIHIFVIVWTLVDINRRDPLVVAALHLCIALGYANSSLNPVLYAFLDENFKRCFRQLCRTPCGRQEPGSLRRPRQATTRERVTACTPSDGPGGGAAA

[5] = molecular target: T2, Delta-type opioid receptor; assay: Inhibitory activity against Opioid receptor delta 1 of (endomorphin 2) in mouse vas deferens was determined
[6] = molecular target: T1, Mu-type opioid receptor; assay: Inhibitory activity against Opioid receptor mu 1 of (endomorphin 2) in guinea pig ileum was determined
[7] = molecular target: T2, Delta-type opioid receptor; assay: In vitro inhibitory activity was determined against Opioid receptor delta 1 in mouse vas deferens

Chain of Mu-type opioid receptor (Rattus norvegicus) (P33535 whole entry): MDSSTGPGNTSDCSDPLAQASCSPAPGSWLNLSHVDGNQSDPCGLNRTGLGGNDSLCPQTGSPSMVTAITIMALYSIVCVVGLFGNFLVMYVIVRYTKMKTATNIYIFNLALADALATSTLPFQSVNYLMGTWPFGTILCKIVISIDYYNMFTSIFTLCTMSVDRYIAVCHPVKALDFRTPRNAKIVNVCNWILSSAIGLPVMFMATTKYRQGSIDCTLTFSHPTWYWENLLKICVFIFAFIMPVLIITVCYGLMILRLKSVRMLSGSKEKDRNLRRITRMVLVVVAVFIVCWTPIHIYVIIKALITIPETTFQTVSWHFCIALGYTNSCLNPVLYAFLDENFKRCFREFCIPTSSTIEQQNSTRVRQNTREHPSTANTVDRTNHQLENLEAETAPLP
Chain of Mu-type opioid receptor (Rattus norvegicus, UniProt P33535) (P33535 whole entry): as above

Cc1cccc(C)c1C[C@H](NC(=O)CNC(=O)CNC(=O)[C@@H](N)Cc1c(C)cc(O)cc1C)C(=O)N[C@@H](CC(C)C)C(=O)O
SR [1]: 0.14
Ki [2]: 5.61 nM
IC50 [3]: > 10 nM
Kb [4]: 2570 nM
IC50 [5]: > 10 nM
Kb [6]: 126 nM

Cc1cccc(C)c1C[C@H](NC(=O)CNC(=O)CNC(=O)[C@@H](N)Cc1ccc(O)cc1)C(=O)N[C@@H](CC(C)C)C(=O)O
SR [1]: 0.28
IC50 [7]: > 10 nM
IC50 [3]: > 10 nM

Cc1cc(O)cc(C)c1C[C@H](N)C(=O)NCC(=O)NCC(=O)N[C@@H](Cc1ccccc1)C(=O)N[C@@H](CC(C)C)C(=O)O
SR [1]: 0.22
IC50 [7]: 0.17 nM
Ki [2]: 0.0068 nM
IC50 [3]: 0.55 nM

Cc1cc(O)cc(C)c1C[C@H](N)C(=O)NCC(=O)NCC(=O)N[C@H](Cc1c(C)cccc1C)C(=O)N[C@@H](CC(C)C)C(=O)O
SR [1]: 0.19
IC50 [7]: 1.45 nM
Ki [2]: 0.03 nM
IC50 [3]: 2 nM

Cc1cccc(C)c1C[C@@H](NC(=O)CNC(=O)CNC(=O)[C@@H](N)Cc1ccc(O)cc1)C(=O)N[C@@H](CC(C)C)C(=O)O
SR [1]: 0.07
IC50 [7]: 624 nM
Ki [2]: 1.25 nM
IC50 [3]: 808 nM
